Measured values as given in patent US20100004238A1, “FUSED HETEROCYCLIC COMPOUND” (TAKEDA PHARMACEUTICAL COMPANY LIMITED, priority 2006, published 2010).

Assays:
[1] = biological target: T1, EGFR intracellular domain (EGFR kinase) (Homo sapiens, UniProt P00533); test: Determination of EGFR kinase inhibitory activity; format: biochemical; settings: compound at 1.0 μM, poly-Glu:Tyr (4:1) substrate, [γ-32P]ATP; for inhibition at 1 µM: read-out: inhibitory rate (%) at 1.0 μM
T1 construct: made in house; host or cells: SF-21 insect cells infected with recombinant baculovirus BAC-EGFR
T1 sequence (P00533 669-1210): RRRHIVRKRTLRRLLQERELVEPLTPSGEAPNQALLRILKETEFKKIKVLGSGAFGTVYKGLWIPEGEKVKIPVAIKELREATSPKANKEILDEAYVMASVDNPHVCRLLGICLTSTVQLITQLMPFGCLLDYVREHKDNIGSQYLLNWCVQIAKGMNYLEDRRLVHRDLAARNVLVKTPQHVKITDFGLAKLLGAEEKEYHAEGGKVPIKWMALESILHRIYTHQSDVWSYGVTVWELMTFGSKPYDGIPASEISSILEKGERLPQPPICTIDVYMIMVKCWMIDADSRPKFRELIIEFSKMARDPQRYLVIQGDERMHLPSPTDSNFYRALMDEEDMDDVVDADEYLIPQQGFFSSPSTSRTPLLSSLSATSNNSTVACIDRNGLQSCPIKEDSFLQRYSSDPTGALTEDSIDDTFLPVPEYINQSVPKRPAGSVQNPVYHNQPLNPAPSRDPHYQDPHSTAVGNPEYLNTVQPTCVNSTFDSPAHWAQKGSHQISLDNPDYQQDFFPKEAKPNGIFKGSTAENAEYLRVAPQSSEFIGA
Experimental: Human EGFR gene was cloned by RT-PCR using total RNA prepared from A431 cells as a template. The primer used for RT-PCR was prepared in consideration of the information of nucleotide sequence (Genbank Accession No. X00588) of EGFR gene by adding a nucleotide sequence encoding DYKDDDD peptide and a restriction enzyme recognition sequence to a nucleotide sequence (corresponding to 2191-3819 of Genbank Accession No. X00588 as a base, 669-1210 amino acids of Genbank Accession No. NP_005219 as a protein) encoding the EGFR intracellular domain region such that the protein contains an N-terminal DYKDDDD peptide tag. The primer nucleotide sequence is shown below.
(§1) SF-21 cells were sown at 1×10^6 cells/mL in Sf-900II SFM medium (1 L, Invitrogen) containing 10% fetal bovine serum (trace), 50 mg/L gentamicin (Invitrogen) and 0.1% Pluronic F-68 (Invitrogen), and shaking culture was performed using a 2 L volume Erlenmeyer flask at 27° C., 100 rpm. After culturing for 24 hrs, recombinant baculovirus BAC-EGFR (13.4 mL) was added, and the mixture was further cultured for 3 days. The culture medium was centrifuged at 2,000 rpm for 5 min to give virus-infected cells. The infected cells were washed with a phosphate buffered saline (Invitrogen), centrifuged under the same conditions, and the cells were preserved at −80° C. The cryopreserved cells were thawed in ice, suspended in buffer A (50 mM Tris buffer (30 mL, pH 7.4) containing 20% glycerol, 0.15 M NaCl) supplemented with Complete Protease Inhibitor (Boehringer), and ruptured 3 times with a Polytron homogenizer (Kinematica) at 20,000 rpm for 30 sec. The ruptured solution was clarified by centrifugation at 40,000 rpm for 30 min, and filtered with a 0.45 μm filter. The filtrate was passed through a column packed with Anti-FLAG M2 Affinity Gel (4 mL, Sigma-Aldrich) at a flow rate of about 0.5 mL/min. The column was washed with buffer A, and eluted with buffer A containing 100 μg/mL of FLAG peptide. The eluent was concentrated with Vivaspin 20 (Vivascience) having a molecular weight cut off of 30K. The concentrate was purified by gel filtration using Hi Load 16/60 Superdex 200 pg (GE Healthcare Bioscience) equilibrated with buffer A. The fractions containing EGFR intracellular domain were collected and cryopreserved at −80° C.
(§2) EGFR kinase reaction was performed using a 96 well plate. As a buffer for kinase reaction, a buffer having a composition of 50 mM Tris-HCl (pH 7.5), 5 mM MnCl2, 2 mM dithiothreitol, 0.01% Tween-20 was used. The compound of the present invention was dissolved in dimethyl sulfoxide (DMSO), and diluted with the kinase reaction buffer so that DMSO concentration would be 0.1% during kinase reaction. This compound solution (10 μL) was mixed with a kinase reaction buffer (20 μL) containing EGFR intracellular domain (0.625 μg/mL) obtained in Experimental Example 2B and polypeptide substrate poly-Glu:Tyr (4:1) (Sigma Ltd., 12.5 μg/mL), and the mixture was stood at room temperature for 5 min. Then, a kinase reaction buffer (20 μL) containing 125 μM ATP and 45 μCi/mL [γ-^32P]ATP was added, and the kinase reaction was initiated with 50 μL of the final reaction mixture. A kinase reaction was performed at room temperature for 10 min, and the kinase reaction was quenched by addition of 20% TCA solution (50 μL). The mixture after completion of the reaction was stood at room temperature for 30 min, and acid insoluble fractions in the mixture after completion of the reaction were collected in a 96 well GF/C filter plate (PerkinElmer) using a cell harvester (PerkinElmer). Thereafter, the filter containing the acid insoluble fractions was washed with 3% phosphoric acid solution. After washing, the filter plate was dried at 45° C. for 60 min, and 25 μL of MicroScinti 0 (PerkinElmer) was added. The radioactivity was measured using TopCount (PerkinElmer).
EGFR kinase inhibitory rate (%) of the test compound was calculated by the following formula: […]

[2] = tested on: human breast cancer cell BT-474; test: Inhibitory action on breast cancer cell BT-474 proliferation in vitro; format: cell-based; settings: 120 h, BT-474 cells, cultured for 5 days with compound, SRB protein content
Experimental: A suspension of human breast cancer cell BT-474 (100 μl (6,000 cells)) were plated in a 96-well microplate and cultured in an incubator (37° C., 5% carbon dioxide). On the following day, 100 μl of a solution of each test compound previously diluted serially in 2-fold, was added, and the cells were cultured for 5 days. After the culture medium containing the test compound was removed, the cells were washed and fixed with 50% trichloroacetic acid, after which a 0.4% (w/v) SRB dye solution (dissolved in 1% acetic acid) was added to stain as well as fix the cell protein (Skehan et al., Journal of the National Cancer Institute, Vol. 82, pp. 1107-1112, 1990). After washing with a 1% acetic acid solution, 100 μl of extract solution (10 mM, Tris buffer) was added to extract the dye and the absorbance was measured at a wavelength of 550 nm to quantify the amount of cells as protein content. Taking as 100% the protein content for the control group, which received no test compound solution, the ratio of the residual protein content for each treatment group was determined, and the compound concentration required to achieve 50% suppression of the residual cell content relative to the control (IC50 value) was calculated.

[3] = biological target: T2, HER2 intracellular domain (HER2 kinase) (Homo sapiens, UniProt P04626); test: Determination of HER2 kinase inhibitory activity; format: biochemical; settings: compound at 1.0 μM, poly-Glu:Tyr (4:1) substrate, [γ-32P]ATP, read-out: inhibitory rate (%) at 1.0 μM
T2 construct: made in house; host or cells: SF-21 insect cells infected with recombinant baculovirus BAC-HER2
T2 sequence (P04626 676-1255): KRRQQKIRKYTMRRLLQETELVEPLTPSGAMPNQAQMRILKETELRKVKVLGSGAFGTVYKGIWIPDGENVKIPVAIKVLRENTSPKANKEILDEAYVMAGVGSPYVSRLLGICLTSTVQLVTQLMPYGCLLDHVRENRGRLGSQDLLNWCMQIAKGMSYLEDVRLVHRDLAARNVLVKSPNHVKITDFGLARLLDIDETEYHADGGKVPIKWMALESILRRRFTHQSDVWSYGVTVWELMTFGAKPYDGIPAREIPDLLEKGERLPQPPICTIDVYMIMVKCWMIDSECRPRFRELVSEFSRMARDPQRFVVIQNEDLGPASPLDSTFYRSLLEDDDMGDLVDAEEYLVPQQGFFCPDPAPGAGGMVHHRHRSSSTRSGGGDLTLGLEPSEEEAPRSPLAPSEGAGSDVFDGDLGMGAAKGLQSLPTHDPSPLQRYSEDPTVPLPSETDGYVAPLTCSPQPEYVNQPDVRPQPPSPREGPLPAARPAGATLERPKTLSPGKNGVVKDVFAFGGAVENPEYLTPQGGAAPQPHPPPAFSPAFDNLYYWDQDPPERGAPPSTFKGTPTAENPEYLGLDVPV
Experimental: Human HER2 gene was cloned by RT-PCR using total RNA prepared from MCF7 cells as a template. The primer used for RT-PCR was prepared in consideration of the information of nucleotide sequence (Genbank Accession No. M11730) of HER2 gene by adding a nucleotide sequence encoding DYKDDDD peptide and a restriction enzyme recognition sequence to a nucleotide sequence (corresponding to 2176-3918 of Genbank Accession No. M11730 as a base, 676-1255 amino acids of Genbank Accession No. NP_004439 as a protein) encoding the HER2 intracellular domain region such that the protein contains an N-terminal DYKDDDD peptide tag. The primer nucleotide sequence is shown below.
as §1, with “hr,” for “hrs,”, “BAC-HER2” for “BAC-EGFR”, “HER2” for “EGFR”
as §2, with “HER2 kinase reaction” for “EGFR kinase reaction”, “buffer […] containing HER2” for “buffer (20 μL) containing EGFR”, “mL) containing HER2 intracellular domain” for “μL) containing EGFR intracellular domain”, “Experimental Example 1B and polypeptide” for “Experimental Example 2B and polypeptide”, “TopCount (PerkinElmer). HER2 kinase inhibitory rate (%) of the test compound was calculated by the following formula: […]” for “TopCount (PerkinElmer).”

| Compound | inhibition at 1 µM [1] [%] | IC50 [2] [µM] | inhibition at 1 µM [3] [%] | inhibitory rate (%) at 1.0 μM ([1]; methanesulfonate, 1 µM) [%] |
| --- | --- | --- | --- | --- |
| Cn1ccc2ncnc(Nc3ccc(Oc4cccc5[nH]ccc45)c(Cl)c3)c21 [Example 22, N-[3-chloro-4-(1H-indol-4-yloxy)phenyl]-5-methyl-5H-pyrrolo[3,2-d]pyrimidin-4-amine] | 98 | < 0.1 |  |  |
| CN1C(=O)Cc2c(Oc3ccc(Nc4ncnc5ccn(CCO)c45)cc3Cl)cccc21 [Example 8, 4-(2-chloro-4-{[5-(2-hydroxyethyl)-5H-pyrrolo[3,2-d]pyrimidin-4-yl]amino}phenoxy)-1-methyl-1,3-dihydro-2H-indol-2-one] | 100 | < 0.1 |  |  |
| CS(=O)(=O)CC(=O)NCCn1ccc2ncnc(Nc3ccc(Oc4cccc5c4CC(=O)N5)c(Cl)c3)c21 [Example 6, N-{2-[4-({3-chloro-4-[(2-oxo-2,3-dihydro-1H-indol-4-yl)oxy]phenyl}amino)-5H-pyrrolo[3,2-d]pyrimidin-5-yl]ethyl}-2-(methylsulfonyl)acetamide] | 100 | < 0.1 |  |  |
| CC(=O)NCCn1ccc2ncnc(Nc3ccc(Oc4cccc5sccc45)c(Cl)c3)c21 [Example 99, N-[2-(4-{[4-(1-benzothiophen-4-yloxy)-3-chlorophenyl]amino}-5H-pyrrolo[3,2-d]pyrimidin-5-yl)ethyl]acetamide] | 98 |  |  |  |
| CC(C)(CO)C(=O)NCCn1ccc2ncnc(Nc3ccc(Oc4ccc5ccsc5c4)c(Cl)c3)c21 [Example 53, N-[2-(4-{[4-(1-benzothiophen-6-yloxy)-3-chlorophenyl]amino}-5H-pyrrolo[3,2-d]pyrimidin-5-yl)ethyl]-3-hydroxy-2,2-dimethylpropanamide] | 98 |  |  |  |
| CS(=O)(=O)CC(=O)NCCn1ccc2ncnc(Nc3ccc(Oc4ccc5ccsc5c4)c(Cl)c3)c21 [Example 60, N-[2-(4-{[4-(1-benzothiophen-6-yloxy)-3-chlorophenyl]amino}-5H-pyrrolo[3,2-d]pyrimidin-5-yl)ethyl]-2-(methylsulfonyl)acetamide] | 99 |  |  |  |
| OCCOCCn1ccc2ncnc(Nc3ccc(Oc4cccc5[nH]ccc45)c(Cl)c3)c21 [Example 16, 2-[2-(4-{[3-chloro-4-(1H-indol-4-yloxy)phenyl]amino}-5H-pyrrolo[3,2-d]pyrimidin-5-yl)ethoxy]ethanol] | 99 |  | 100 |  |
| CC(=O)NCCn1ccc2ncnc(Nc3ccc(Oc4cccc5sccc45)c(Cl)c3)c21 [Example 119, N-[2-(4-{[4-(1-benzothiophen-4-yloxy)-3-chlorophenyl]amino}-5H-pyrrolo[3,2-d]pyrimidin-5-yl)ethyl]acetamide methanesulfonate] |  |  |  | 99 |
